According to patent US8569349B2, “Therapeutic compounds” (Allergan, Inc., priority 2008, dated 2013):

Tested on: lashes and adjacent hairs of the eyelids
Assay: Observation of lashes and adjacent hairs in glaucoma patients taking bimatoprost in only one eye
Assay type: in vivo
From the text: In the course of treating patients having glaucoma, treatment may only be appropriate in one eye. […] The lash appearance on the lids of the treated eyes would have appeared quite attractive if it represented a bilateral phenomenon. As a result of its asymmetric nature, the long lashes on one side could be construed as disturbing from a cosmetic standpoint. A systemic examination was preformed as a result of the asymmetric phenomenon. It soon became apparent that this altered appearance was not an isolated finding. […] Definite differences could be identified to varying degrees in the lashes and adjacent hairs of all patients who were taking the drug on a unilateral basis for longer than 6 months.
The changes in the lashes were apparent on gross inspection in several patients once attention was focused on the issue. In those with light colored hair and lashes, the differences were only seen easily with the aid of the high magnification and lighting capabilities of the slit lamp biomicroscope. In the course of glaucoma follow-up examination, attention is generally immediately focused on the eye itself. As a result of the high power magnification needed only one eye is seen at a time and the eye is seen at a high enough power that the lashes are not in focus. […]

Structure (SMILES): CCNC(=O)CCC/C=C\C[C@@H]1[C@@H](/C=C/[C@@H](O)CCc2ccccc2)[C@H](O)C[C@@H]1O [bimatoprost]
- lashes in the treated eye compared with the non-treated eye (glaucoma patient treated in one eye): longer, thicker, and fuller
- hair growth in treated versus control areas (multiple parameters of hair appearance, many subjects): stimulated
